Source: patent publication US6541621B1, “Hypoxia inducible promoter” (Purdue University Research Foundation, priority 1997, dated 2003)
“Also recorded” adds a separate entry of the source.

Assays:
[1] = test system: rice suspension cells; test: GUS activity of promoter-uidA construct shot into rice suspension cells; format: cell-based; details: 2.38 kb region fused to the uidA gene
[2] = test system: Alcohol dehydrogenase (Adh) gene; test: Northern blot of total RNA from suspension cells with or without cycloheximide, maize Adh probe; format: cell-based, rice; details: for Adh transcripts: cycloheximide in the presence of O2, suspension cells
Method: Two-week-old uniform seedlings of rice (IR54 variety) were transferred to two liter flasks and subjected to anaerobic conditions. Seedlings were submerged in distilled water through which nitrogen gas was continuously bubbled. The anaerobic treatment was conducted in the dark at 25° C. Control seedlings were maintained in the dark at 25° C. Tissues were harvested and immersed in liquid nitrogen. Extraction of RNA was carried out according to the procedure of Logmann et al. (Anal Biochem 163: 16-20, 1987) with modifications. The frozen tissue (2 gm) was ground in liquid nitrogen in an autoclaved mortar and pestle, and transferred to autoclaved plastic centrifuge tubes. Extraction buffer (4M guanidine hydrochloride, 20 mM MES, 20 mM EDTA, 4 ml/g tissue) was added to each tube. After vigorous shaking and complete mixing the suspension was extracted once with phenol:chloroform:isoamyl alcohol (25:24:1) and centrifuged for 45 minutes at room temperature at 10,000 rpm in a Beckman centrifuge using JA-20 rotor. Then 0.2 volumes of 1 M acetic acid [diethyl pyrocarbonate (DEPC) -treated] were added to the supernatant to acidify the contents, and the RNA was precipitated by adding 0.7 volumes of ethanol after 1 hour incubation at −80° C. following centrifugation at 10,000 rpm for 10 minutes. The RNA pellet was subsequently dissolved in DEPC-treated water and reprecipitated using ⅓ volume of 8 M LiCl (overnight at 4° C.). The RNA sample was subsequently washed with 80% ethanol and dissolved in DEPC-water after drying, and quantified spectrophotometrically. Suspension cultures of Radon variety were also treated in the same way under anaerobic conditions. Cycloheximide was added at a final concentration of 100 μM, and anaerobic conditions were applied for various time periods after 30 minutes pretreatment. RNA was isolated using the same procedure described above.
Ten μg of total RNA isolated from suspension cells (Radon variety) was loaded in each lane and was resolved in 1.2% formaldehyde-agarose gel according to standard procedures. […]

[3] = test system: rice suspension cells; test: Protein synthesis in rice suspension cells; format: cell-based; details: cycloheximide at 20 to 300 μM
[4] = test system: pdc genes; test: Northern blot of total RNA from suspension cells under anaerobic conditions with or without cycloheximide, common pdc probe; format: cell-based, rice; details: 100 μM cycloheximide, suspension cells (Radon variety)
Method: Two-week-old uniform seedlings of rice (IR54 variety) were transferred to two liter flasks and subjected to anaerobic conditions. Seedlings were submerged in distilled water through which nitrogen gas was continuously bubbled. The anaerobic treatment was conducted in the dark at 25° C. Control seedlings were maintained in the dark at 25° C. Tissues were harvested and immersed in liquid nitrogen. Extraction of RNA was carried out according to the procedure of Logmann et al. (Anal Biochem 163: 16-20, 1987) with modifications. The frozen tissue (2 gm) was ground in liquid nitrogen in an autoclaved mortar and pestle, and transferred to autoclaved plastic centrifuge tubes. Extraction buffer (4M guanidine hydrochloride, 20 mM MES, 20 mM EDTA, 4 ml/g tissue) was added to each tube. After vigorous shaking and complete mixing the suspension was extracted once with phenol:chloroform:isoamyl alcohol (25:24:1) and centrifuged for 45 minutes at room temperature at 10,000 rpm in a Beckman centrifuge using JA-20 rotor. […] The RNA sample was subsequently washed with 80% ethanol and dissolved in DEPC-water after drying, and quantified spectrophotometrically. […]

| Compound | GUS activity [1] | induction of Adh gene ([2]; 100 μM cycloheximide, anaerobic conditions, suspension cells) | Adh transcripts [2] | Adh transcripts ([2]; listed as Cycloheximide) | protein synthesis [3] | induction of pdc genes [4] |
| --- | --- | --- | --- | --- | --- | --- |
| 2.38 kb region: about 2.38 kb 5' upstream region of the rice pdc2 gene (hypoxia inducible promoter), fused to the uidA gene | showed GUS activity |  |  |  |  |  |
| C[C@@H]1C[C@@H]([C@H](O)CC2CC(=O)NC(=O)C2)C(=O)[C@@H](C)C1 [cycloheximide] |  | down-regulated; also recorded: reduced induction | induced Adh transcripts | induced Adh messages | reduce protein synthesis | reduce the induction of pdc genes; also recorded: reduced induction |
